The test system of one series is AKSP tumoroids. As to the kind of experiment: Full dose-response in CRC tumoroids (AKSP). In kind it is cell-based, mouse. The settings on record: TiterGlo after 72 hours. Here is the method:
FIGS. 13A-13E show results pertaining to colorectal cancer. […] Data are column/gene normalized on a 0-100 scale with 0 being the lowest expression level and 100 the highest. FIG. 13D show full dose-response analysis of WNTinib's effects on the indicated organoid and tumoroid lines; viability was quantified using the TiterGlo assay after 72 hours. WT intestinal organoids are used as a control. […] Images of the intestine are shown as an example.
Next, a full dose-response of WNTinib in WildType normal organoids (WT), APC^KO (A), APC^KO KRAS^G12D/SMAD4^KO (AKS) and APC^KO KRAS^G12D/SMAD4^KO P53^KO (AKSP) tumoroids was performed. WNTinib has a lower IC50 in the aggressive metastatic AKSP tumoroids compared to their matched parental WT organoid line, providing thus a therapeutic window for the most advanced CRC models (FIG. 13D).

Series [1] is described as follows: Dose escalation studies in mice. It counts as in vivo, mouse. Here is the method:
Mice were randomized into treatment groups, and daily oral dosing began one week after mice arrived at ISMMS. Body weight was recorded daily, and animals were monitored for any signs of sickness throughout the treatment period.
To rationalize a treatment regimen for WNTinib and understand potential toxicity, in vivo dose escalation was performed in three mouse strains (FIG. 8A, FIGS. 12A-12B). Mice were dosed daily for two weeks, and body weight loss was used as a proxy for systemic toxicity.

The subject of series [2] is MYC-CTNNB1 tumor organoids. Kind of series: Drug toxicity (viability) assay in murine HCC tumor organoids. The settings on record: screen in four tumor organoid models; 5 μM, viability after 3 days. In kind it is cell-based, mouse. As for the experimental part:
Liver tumors were minced and digested in sterile digestion media (PBS, 0.125 mg/mL collagenase from Clostridium histolyticum, 0.125 mg/mL dispase II, and 0.1 mg/mL DNaseI) for two hours at 37° C. Tumor dissociate was strained through a 70 μm strainer and washed with basal media (Advanced DMEM/F-12, 1% glutamine, 1% penicillin/streptomycin, 10 mM HEPES). Cells were counted, washed, resuspended at 50,000 cells per 50 μL Matrigel (Corning), and plated in 24 well plates. […]
For assays in organoid lines, 96 well plates were first coated with a 50:50 solution of basal media:Matrigel (35 μL/well), which polymerized for 15 minutes at 37° C. […] Viability was measured three days post drug administration with either luminescence from CellTiter-Glo or absorbance at 560 and 590 nm from resazurin. Viability data was analyzed by normalizing individual drug-treated well values to DMSO-treated wells. […]

A further series deals with Advanced-stage HCC. The settings on record: patients; cited from earlier work.
Where [3] appears, read: dosed daily via oral gavage for two weeks, three mouse strains.

For the compound `CNC(=O)c1cc(Oc2ccc(NC(=O)Nc3ccc(C(F)(F)C(F)(F)F)cc3)c(F)c2)ccn1` [WNTinib, 4-(3-fluoro-4-(3-(4-(perfluoroethyl)phenyl)ureido)phenoxy)-N-methylpicolinamide], in the series with AKSP tumoroids, the “IC50 in AKSP tumoroids compared to parental WT organoid line” value was “lower IC50”. For the same compound, the tolerability of exposures entry in series [1] (dose escalation and 20 mg/kg PK (FIG. 8A, 8B)) was “well-tolerated”. In series [1] (setting [3]), the body weight loss result was “weight loss did occur in a dose-dependent manner” and the signs of sickness entry is given as “No mice showed signs of sickness”. In series [2], the “activity in tumor organoid screen” value is “potent and selective activity”.
As for `CNC(=O)c1cc(Oc2ccc(NC(=O)Nc3ccc(Cl)c(C(F)(F)F)c3)cc2)ccn1` [sorafenib, reference compound], the median survival in the series with Advanced-stage HCC is recorded as 11-14 months.
